{
  "source": "patent US20220249637A1",
  "about": "“COMBINATION THERAPY OF A CELL-MEDIATED CYTOTOXIC THERAPY AND AN INHIBITOR OF A PROSURVIVAL BCL2 FAMILY PROTEIN” (Juno Therapeutics, Inc., priority 2019, published 2022)",
  "origin": "cited, not measured here",
  "key": {"[1]": {"test_system": "CD3+ cells", "conditions": "human, in vivo; cited from earlier work"}, "[2]": {"test_system": "CD3+CD4+ and CD3+CD8+ T cells", "conditions": "mouse, in vivo; cited from earlier work"}},
  "data": [
    {"substance": "navitoclax", "values": [
      {"measurement": "average decrease of CD3+ cells", "setting": "[1]", "value": 241, "unit": "cells/μL"},
      {"measurement": "decrease in T cells at final visits", "setting": "[1]", "value": "maintained"},
      {"measurement": "CD3+CD4+ and CD3+CD8+ T cells in the peripheral blood", "setting": "[2]", "value": "induced a relative and absolute reduction"}
    ]}
  ]
}
